Legend:
MERTK = target: T1, MERTK (Homo sapiens, UniProt Q12866); test: TR-FRET kinase activity assay, MERTK; format: biochemical; conditions: for IC50: TR-FRET activity assay, ATP at Km, 60 minutes, read-out: Mer IC50; for FLT3/Mer ratio (FLT3 IC50/Mer IC50): ratio of Mer to FLT3: FLT3 IC50/Mer IC50
T1 sequence (Q12866 21-999): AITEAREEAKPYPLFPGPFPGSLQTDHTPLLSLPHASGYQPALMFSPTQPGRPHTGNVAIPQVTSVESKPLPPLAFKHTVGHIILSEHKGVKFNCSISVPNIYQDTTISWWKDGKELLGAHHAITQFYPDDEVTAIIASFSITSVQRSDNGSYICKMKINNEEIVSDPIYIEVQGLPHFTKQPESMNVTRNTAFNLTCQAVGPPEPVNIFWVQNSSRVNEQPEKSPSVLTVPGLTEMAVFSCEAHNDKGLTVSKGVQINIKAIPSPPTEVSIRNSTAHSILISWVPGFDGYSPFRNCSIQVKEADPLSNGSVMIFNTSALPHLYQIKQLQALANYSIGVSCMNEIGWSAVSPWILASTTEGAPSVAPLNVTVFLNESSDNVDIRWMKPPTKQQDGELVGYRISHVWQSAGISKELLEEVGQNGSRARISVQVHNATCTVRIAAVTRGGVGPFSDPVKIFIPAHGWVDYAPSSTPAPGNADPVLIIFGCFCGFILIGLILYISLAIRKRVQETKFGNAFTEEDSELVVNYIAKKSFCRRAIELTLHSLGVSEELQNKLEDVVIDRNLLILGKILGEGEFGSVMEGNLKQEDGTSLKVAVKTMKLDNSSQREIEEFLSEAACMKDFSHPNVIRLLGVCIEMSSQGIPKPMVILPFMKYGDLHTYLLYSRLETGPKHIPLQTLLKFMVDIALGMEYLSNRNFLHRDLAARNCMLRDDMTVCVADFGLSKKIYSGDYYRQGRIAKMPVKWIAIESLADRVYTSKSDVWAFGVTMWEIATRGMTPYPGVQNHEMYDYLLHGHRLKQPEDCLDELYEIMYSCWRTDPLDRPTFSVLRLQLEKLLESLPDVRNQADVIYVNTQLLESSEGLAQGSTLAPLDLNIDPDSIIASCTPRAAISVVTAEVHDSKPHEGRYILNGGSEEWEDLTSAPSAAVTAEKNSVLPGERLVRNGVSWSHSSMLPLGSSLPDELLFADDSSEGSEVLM
Description: (§1) IC50 values for compound inhibition of AXL, FLT3, MERTK and TYRO3 activity were determined by using a TR-FRET activity assay. A polypeptide substrate with a fluorescent label is phosphorylated on a tyrosine by each enzyme, where the now phosphorylated product is bound by a Europium-labeled antibody specific to that phosphorylation site. The proximity between the antibody and the substrate gives a signal known as TR-FRET. As the enzyme is inhibited by compound, less phosphorylated peptide product is made causing a decrease in overall signal.
(§2) Activity assays were performed in a 384-well, small volume, black microplates in an active enzyme volume of 10 μL and final developed volume of 20 μL. Final assay conditions are 50 mM HEPES pH 7.5, 10 mM MgCl2, 1 mM EGTA, 0.01% Brij 35 and 1 mM DTT all at RT. Enzyme, substrate labeled peptide and compound are mixed, and then the reaction is initiated with the addition of ATP at Km concentration for each enzyme. The reaction is allowed to run 60 minutes and then quenched with a 12.5 mM EDTA (ethylenediamine tetraacetic acid) solution. The plate is then developed with the addition of Europium labeled antibody for a final volume of 20 μL and is then incubated for 30 minutes in darkness. Plates are read in a Pherastar plate reader. Data is analyzed in GraphPad PRISM.
(§3) The results of these assays are shown in Table 1, below, wherein “No.” designates compound number (FIG. 1); “A” represents a value of ≤100 nM; “B” a value of >100 nM and ≤1 μM; “C” a value of >1 μM and ≤10 μM; “D” a value of >10 μM; “ND” is not determined. The ratio of Mer to FLT3 is calculated as follows: FLT3 IC50/Mer IC50. “+” represents a ratio of >2.0 and <10; “++” represents a ratio of between 10 and 100; and “+++” represents a ratio of >100.

FLT3 = target: T2, FLT3 (Homo sapiens, UniProt P36888); test: TR-FRET kinase activity assay, FLT3; format: biochemical; conditions: ATP at Km, 60 minutes
T2 sequence (P36888 27-993): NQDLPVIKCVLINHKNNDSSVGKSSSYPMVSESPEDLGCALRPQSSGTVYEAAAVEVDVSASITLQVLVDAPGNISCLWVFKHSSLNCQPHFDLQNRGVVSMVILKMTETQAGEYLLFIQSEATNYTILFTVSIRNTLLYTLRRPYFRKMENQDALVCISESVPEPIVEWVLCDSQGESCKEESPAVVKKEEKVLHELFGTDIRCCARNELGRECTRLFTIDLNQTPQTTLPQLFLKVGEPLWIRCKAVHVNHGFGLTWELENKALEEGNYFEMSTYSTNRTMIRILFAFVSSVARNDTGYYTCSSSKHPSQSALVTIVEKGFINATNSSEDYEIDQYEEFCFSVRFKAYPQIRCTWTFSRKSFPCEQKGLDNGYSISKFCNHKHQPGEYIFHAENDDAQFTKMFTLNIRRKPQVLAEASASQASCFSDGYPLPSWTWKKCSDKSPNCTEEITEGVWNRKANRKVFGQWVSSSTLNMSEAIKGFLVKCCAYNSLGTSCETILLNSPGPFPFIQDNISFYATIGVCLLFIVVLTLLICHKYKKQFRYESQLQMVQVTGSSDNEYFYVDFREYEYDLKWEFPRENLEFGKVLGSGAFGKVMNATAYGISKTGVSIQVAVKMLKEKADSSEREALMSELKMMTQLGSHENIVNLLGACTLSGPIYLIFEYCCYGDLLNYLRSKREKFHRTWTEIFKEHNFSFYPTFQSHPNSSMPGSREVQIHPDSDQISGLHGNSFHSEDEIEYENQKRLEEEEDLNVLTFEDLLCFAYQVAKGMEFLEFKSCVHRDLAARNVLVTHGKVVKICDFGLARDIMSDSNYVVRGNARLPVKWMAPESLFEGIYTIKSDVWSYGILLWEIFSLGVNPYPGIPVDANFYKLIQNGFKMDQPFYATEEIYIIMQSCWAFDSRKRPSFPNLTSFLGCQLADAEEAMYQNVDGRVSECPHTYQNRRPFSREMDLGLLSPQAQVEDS
Description: as §1, §2, §3

SMILES | IC50 (MERTK) | FLT3/Mer ratio (FLT3 IC50/Mer IC50) (MERTK) | IC50 (FLT3)
Cc1cc(-c2cc([C@H]3CC[C@H](O)CC3)n3nc(N[C@@H](C)CC(F)(F)F)ncc23)ccn1 [Compound 213] | ≤ 100 nM | +++ (“+++” represents a ratio of >100) | ≤ 100 nM
CC(C)OC[C@H](C)Nc1ncc2c(-c3ccc(CN4CCOCC4)cc3)cc([C@H]3CC[C@H](O)CC3)n2n1 [Compound 214] | ≤ 100 nM | +++ (“+++” represents a ratio of >100) | 1000 to 10000 nM
Cc1cc(-c2cc([C@H]3CC[C@H](O)CC3)n3nc(N[C@@H](C)COC(C)C)ncc23)ccn1 [Compound 215] | ≤ 100 nM | +++ (“+++” represents a ratio of >100) | 1000 to 10000 nM
C[C@@H](CC1CC1)Nc1ncc2c(-c3ccc(CN4CCN(C)CC4)cc3)cc([C@H]3CC[C@H](O)CC3)n2n1 [Compound 216] | ≤ 100 nM | ++ (“++” represents a ratio of between 10 and 100) | ≤ 100 nM
COC[C@H](C)Nc1ncc2c(-c3cccc(CN4CCOCC4)c3)cc([C@H]3CC[C@H](O)CC3)n2n1 [Compound 217] | ≤ 100 nM | +++ (“+++” represents a ratio of >100) | 100 to 1000 nM
COC[C@H](C)Nc1ncc2c(-c3cccc(CN4CCN(C)CC4)c3)cc([C@H]3CC[C@H](O)CC3)n2n1 [Compound 218] | ≤ 100 nM | +++ (“+++” represents a ratio of >100) | 100 to 1000 nM
COC[C@H](C)Nc1ncc2c(-c3cncc(CN4CCOCC4)c3)cc([C@H]3CC[C@H](O)CC3)n2n1 [Compound 219] | ≤ 100 nM | +++ (“+++” represents a ratio of >100) | 1000 to 10000 nM
COC[C@H](C)Nc1ncc2c(-c3cnn(Cc4cccnc4)c3)cc([C@H]3CC[C@H](O)CC3)n2n1 [Compound 220] | ≤ 100 nM | +++ (“+++” represents a ratio of >100) | 100 to 1000 nM
COCC(C)Nc1ncc2c(-c3cnn(C4COC4)c3)cc(C3CCC(O)CC3)n2n1 (stereo not drawn) [Compound 221] | ≤ 100 nM | +++ (“+++” represents a ratio of >100) | 100 to 1000 nM
COC[C@H](C)Nc1ncc2c(-c3cnn(CCC#N)c3)cc([C@H]3CC[C@H](O)CC3)n2n1 [Compound 222] | ≤ 100 nM | +++ (“+++” represents a ratio of >100) | 100 to 1000 nM
COC[C@H](C)Nc1ncc2c(-c3cccc(CN4CCC(F)(F)C4)c3)cc([C@H]3CC[C@H](O)CC3)n2n1 [Compound 223] | ≤ 100 nM | +++ (“+++” represents a ratio of >100) | 1000 to 10000 nM
COC[C@H](C)Nc1ncc2c(-c3cccc(CN4CC[C@@H](F)C4)c3)cc([C@H]3CC[C@H](O)CC3)n2n1 [Compound 224] | ≤ 100 nM | +++ (“+++” represents a ratio of >100) | 100 to 1000 nM
COCC(C)Nc1ncc2c(-c3cccc(CN4CCC(F)C4)c3)cc(C3CCC(O)CC3)n2n1 (stereo not drawn) [Compound 225] | ≤ 100 nM | +++ (“+++” represents a ratio of >100) | 100 to 1000 nM
COC[C@H](C)Nc1ncc2c(-c3ccc(C(=O)N4CCN(C)CC4)nc3)cc([C@H]3CC[C@H](O)CC3)n2n1 [Compound 226] | ≤ 100 nM | +++ (“+++” represents a ratio of >100) | 100 to 1000 nM

Continued, values first:

IC50 (MERTK) | FLT3/Mer ratio (FLT3 IC50/Mer IC50) (MERTK) | IC50 (FLT3) | SMILES
≤ 100 nM | +++ (“+++” represents a ratio of >100) | 1000 to 10000 nM | COC[C@H](C)Nc1ncc2c(-c3ccc(C(=O)N4CCOCC4)nc3)cc([C@H]3CC[C@H](O)CC3)n2n1 [Compound 227]
≤ 100 nM | +++ (“+++” represents a ratio of >100) | 1000 to 10000 nM | COC[C@H](C)Nc1ncc2c(-c3ccc(C(=O)NC(C)C)nc3)cc([C@H]3CC[C@H](O)CC3)n2n1 [Compound 228, 5-(7-((1r,4S)-4-hydroxycyclohexyl)-2-(((S)-1-methoxypropan-2-yl)amino)pyrrolo[2,1-f][1,2,4]triazin-5-yl)-N-isopropylpicolinamide]
≤ 100 nM | +++ (“+++” represents a ratio of >100) | 100 to 1000 nM | COC[C@H](C)Nc1ncc2c(-c3ccc(CN4CCOCC4)nc3)cc([C@H]3CC[C@H](O)CC3)n2n1 [Compound 230]
≤ 100 nM | +++ (“+++” represents a ratio of >100) | 1000 to 10000 nM | COC[C@H](C)Nc1ncc2c(-c3cncc(C)c3)cc([C@H]3CC[C@H](O)CC3)n2n1 [Compound 231]
≤ 100 nM | +++ (“+++” represents a ratio of >100) | 1000 to 10000 nM | COC[C@H](C)Nc1ncc2c(-c3cncc(C(=O)N4CCCC4)c3)cc([C@H]3CC[C@H](O)CC3)n2n1 [Compound 232]
≤ 100 nM | +++ (“+++” represents a ratio of >100) | 1000 to 10000 nM | COC[C@H](C)Nc1ncc2c(-c3cncc(C(=O)N4CCOCC4)c3)cc([C@H]3CC[C@H](O)CC3)n2n1 [Compound 233]
≤ 100 nM | +++ (“+++” represents a ratio of >100) | 1000 to 10000 nM | COC[C@H](C)Nc1ncc2c(-c3cncc(C(=O)N4CCN(C)CC4)c3)cc([C@H]3CC[C@H](O)CC3)n2n1 [Compound 234]
≤ 100 nM | +++ (“+++” represents a ratio of >100) | 1000 to 10000 nM | COC[C@H](C)Nc1ncc2c(-c3cnn(CC(=O)NC(C)C)c3)cc([C@H]3CC[C@H](O)CC3)n2n1 [Compound 235]
≤ 100 nM | +++ (“+++” represents a ratio of >100) | 100 to 1000 nM | COC[C@H](C)Nc1ncc2c(-c3cnn(CC(=O)N[C@H]4CCOC4)c3)cc([C@H]3CC[C@H](O)CC3)n2n1 [Compound 237]
